In patent US20030138533A1, “Food and beverage perservative” (Nutraceutical Clinical Laboratories International, Inc., priority 2002, published 2003):

Test system: mold
Assay: Mold growth in white pan bread during storage (shelf-life test)
Conditions: white pan bread mix; test preservative about 3.5% of total mix weight, control 0.27% calcium propionate; same packaging and storage; 90 day test period
Protocol: The test sample preservative composition as shown in Table 1 was added to white pan bread mix in the final minute of mixing after yeast and salt had been blended into the mixture. The preservative composition comprised about 3.5% of the total weight of the mix. A control sample containing 0.27% calcium propionate was added to another identical sample of white pan bread mix. The control sample molded in 12 days. The test sample remained free of any sign of mold growth during a 90 day test period. Both the test sample and the control sample were packaged and stored in the same conditions throughout the test period.

In the case of CCC(=O)[O-].CCC(=O)[O-].[Ca+2] [calcium propionate], the “time without mold growth (time until the bread sample molded)” value is reported as 12 days.
